Reference: patent US20260102377A1, “COMPOSITIONS AND METHODS FOR TREATING MYASTHENIA GRAVIS” (priority 2022, published 2026)
Where two headings read alike, the source gives them in different places.

Assays:
[1] = Phase IIA clinical trial (Part C): pharmacokinetics in patients; format: in vivo; settings: both sexes, human, plasma; for AUC(0-inf): read-out: AUC0-infinity (Mean ± SD, h · ng/mL); for Cmax: read-out: Cmax (Mean ± SD, ng/mL); for half-life: read-out: T1/2 (median, hr) (converted); for Tmax: read-out: Tmax (median, hr)
Procedure: • Collect blood (3 mL recommended) onto wet ice (K2EDTA tubes) • Immediately cool blood on crushed wet ice for maximum of 30 minutes • Harvest plasma as quickly as possible using refrigerated centrifuge by centrifuging at 2000 g for 10 minutes at 4° C. • Keep plasma on wet ice and immediately stabilise with 1:1 (v/v) addition of Water: Orthophosphoric Acid (100:2 v/v) prepared using ≥85% orthophosphoric acid and deionised water (e.g. 750 μL plasma+750 μL stabiliser). • Mix sample thoroughly. • Keep the stabilised plasma on wet ice during subsequent steps. • Divide the stabilised plasma into 5×250 μL aliquots in plastic cryotubes. • Store aliquots at nominal −70° C./−80° C. promptly.
• 1. Thaw frozen calibration standards, QC samples, blank matrix and study samples on wet ice. • 2. Vortex-mix all samples thoroughly. • 3. On wet ice aliquot 150 μL of calibration standards, QC samples, study samples, and blanks into a 2 mL 96-well plate. For the reagent blank add the same volume of Water. • 4. On wet ice add 25 μL of Methanol:Water (50:50) to wells containing blanks and the same volume of ISTD intermediate solution to all other wells. • 5. On wet ice add 125 μL of Water to each well. Cap plate and vortex-mix (˜5 minutes, 1000 rpm). • 6. Centrifuge plate (˜3000 g, 3 minutes, room temperature). • 7. Condition SPE plate (Waters Oasis HLB pElution) with 250 μL Methanol. • 8. Condition SPE plate with 250 μL of Water. • 9. Load 250 μL of the sample onto the SPE plate (aspirate from the rim of the cone to avoid any debris collected at the bottom of the well). Pass through using minimum pressure. • 10. Wash SPE plate with 250 μL of Water. • 11. Wash SPE plate with 250 μL of Methanol:Water (5:95). Briefly increase pressure for one minute to ensure sorbent is partially dried. • 12. Elute from SPE plate into a 1.2 mL 96-well plate using 30 μL of Methanol. Stand for one minute then pass through using absolute minimum pressure. • 13. Elute again with another 30 μL of Methanol, collecting into the same plate. Briefly increase pressure for one minute to complete the elution. • 14. Add 125 μL of Ammonium Formate 10 mM (aq):Formic Acid (100:0.3) to each well. Cap plate and vortex mix (˜1 minute, ≥1200 rpm). • 15. Store plate refrigerated prior to analysis.
For each subject, the study consisted of three study periods during which subjects received either a single dose of NMD670 400 mg, NMD670 1200 mg, or placebo with a 7-day washout period between visits. On these study visits, subjects were asked to refrain from their regular dose of pyridostigmine (if applicable) from 14 h before dosing until after the last pharmacodynamic measurement on Day 1 (see Table 13: Visit and Assessment Schedule). The cross-over design allowed intra-individual comparison of drug effects versus placebo (see FIG. 16). A balanced design was applied to control for first-order carry-over effects.
Part C was a double-blinded, placebo-controlled, three-way cross-over comparison of two single oral doses of NMD670 in men and women with stable symptomatic myasthenia gravis. 12 patients were enrolled. For each subject, the study consisted of three study periods during which subjects received either a single dose of NMD670 or placebo. On these study visits, subjects were asked to refrain from their regular dose of pyridostigmine (if applicable) for 14 hours before dosing. Single doses were administered in randomized order (400 mg free acid, 1200 mg free acid, or placebo p.o.), with a 7-day washout period between visits (FIG. 16). NMD670/placebo was administered with 240 ml of still water.

[2] = tested on: soleus, EDL and diaphragm muscles from EAMG rats; assay: Force measurement in isolated intact nerve-muscle preparations; parameters: species or system rat; settings: for Relative force area after addition of NMD670 (Initial area = 100): NMD670 between 20 and 40 μM
Text: To allow for measurements of electrophysiological properties at the cellular level and for measurements of force, it was necessary to isolate nerve-muscle preparations from the rats. To this end, animals were sacrificed, and muscles were dissected out with 1 to 3 cm of intact nerve. The nerve-muscle preparations were then transferred to the organ baths used for the particular experiments (see below) and perfused with Normal Krebs-Ringer (NKR) solution, consisting of (in mM); 122 NaCl, 25 NaHCO3, 2.8 KCl, 1.2 KH2PO4, 1.2 MgSO4 1.27 CaCl2 and 5 D-glucose. This NKR solution was continuously gassed with a mixture of 95% oxygen and 5% CO2, to maintain a pH of approx. 7.4. In some experiments methyl-sulphate was used to replace Cl^− in the solution. All chemicals used were of analytical grade.
To determine whether enhanced neuromuscular transmission with CIC-1 inhibition could restore force in whole muscles from EAMG animals, experiments were conducted with soleus, extensor digitorum longus, and diaphragm muscles from EAMG rats. All muscles were mounted on force transducers (FORT 250, WPI instruments DE) in pre-warmed chambers (30° C.) containing 20 mL NKR each. The acquisition program Signal (version 6.4, Cambridge Electronics Design Ltd, Cambridge, UK) was used to control stimulation, delivered by an isolated stimulator (isostim 01D NPI electronics, DE) and for recording data via an analogue-digital converter (Micro 1401 Cambridge Electronics Design Ltd, Cambridge, UK). After equilibration in chambers, muscles were stretched to their optimal length and stimulated at a range of frequencies. For the duration of the experiment muscles were stimulated both directly and via the nerve at 12 V. This was accomplished by changing the stimulation pulse duration between 0.02 ms for nerve stimulation and 0.2 ms for direct stimulation of the muscle fibres. Muscles were stimulated every 10 min at 60 Hz for 1 second, either directly or via the nerve. To test for effect of NMD670 on force generation, different concentrations of NMD670 were added directly to the experimental chamber of the individual muscles.

Work on `C[C@H](Oc1ccc(Br)cc1-c1ccon1)C(=O)O` [NMD670, (2S)-2-[4-bromo-2-(1,2-oxazol-3-yl)phenoxy]propanoic acid] yielded an AUC(0-inf) ([1]; 400 mg single oral dose) of 93.7 µg·h/mL, a Cmax ([1]; 400 mg single oral dose) of 21700 ng/mL and a half-life ([1]; 400 mg single oral dose) of 5.43 h. For the same compound, the Tmax ([1]; 400 mg single oral dose) was 2 h, the AUC(0-inf) ([1]; 1200 mg single oral dose) was 378 µg·h/mL and the Cmax ([1]; 1200 mg single oral dose) was 76700 ng/mL. For the same compound, the half-life ([1]; 1200 mg single oral dose) was 5.06 h, the Tmax ([1]; 1200 mg single oral dose) was 2 h and the “Force from isolated soleus muscle” value ([2]; 20 μM NMD670, nerve-stimulated at 60 Hz, EAMG rats) was “could be restored”. For the same compound, the “Relative force area after addition of NMD670 (Initial area = 100)” value (“Relative force area after addition” for short) ([2]; Diaphragm (12) from EAMG rats) was 120.2 ± 5.04, the “Relative force area after addition” value ([2]; EDL (14) from EAMG rats) was 235.1 ± 25.0 and the “Force generation in isolated soleus, EDL and diaphragm muscles compared with muscles from healthy animals” value ([2]; NMD670 20 μM or between 20 and 40 μM, EAMG animals) was “restored force generation”. The “Relative force area after addition” value ([2]; Soleus (14) from EAMG rats) was 199 ± 17.1.
